Where two headings read alike, the source gives them in different places. Marks after values point to notes of the source that are not given here.
Tests used:
in vitro = conditions: African green monkey
HyMurG [1] = molecular target: T1, HyMurG (Hydrogenivirga sp. 128-5-R1-1, UniProt A8US35); assay: UV-Vis-based MurG assay; format: biochemical
MsmegMurG [2] = molecular target: T2, MsmegMurG (Mycolicibacterium smegmatis, UniProt A0R016); assay: biochemical; design: species or system Mycobacterium smegmatis; conditions: read-out: (MsmegMurG) inhibition (%)
HyMurG [3] = molecular target: T1, HyMurG; assay: HPLC-based MurG assay, dose-response, HyMurG; format: biochemical; conditions: read-out: IC50 HyMurG; HPLC-based method; average of two-three experiments
MsmegMurG [4] = molecular target: T2, MsmegMurG; assay: biochemical; design: species or system Mycobacterium smegmatis
MsmegMraY = MsmegMraY (Mycolicibacterium smegmatis, UniProt A0R019); assay: biochemical; format: biochemical, Mycobacterium smegmatis
Sequence of MsmegMraY (A0R019 whole entry): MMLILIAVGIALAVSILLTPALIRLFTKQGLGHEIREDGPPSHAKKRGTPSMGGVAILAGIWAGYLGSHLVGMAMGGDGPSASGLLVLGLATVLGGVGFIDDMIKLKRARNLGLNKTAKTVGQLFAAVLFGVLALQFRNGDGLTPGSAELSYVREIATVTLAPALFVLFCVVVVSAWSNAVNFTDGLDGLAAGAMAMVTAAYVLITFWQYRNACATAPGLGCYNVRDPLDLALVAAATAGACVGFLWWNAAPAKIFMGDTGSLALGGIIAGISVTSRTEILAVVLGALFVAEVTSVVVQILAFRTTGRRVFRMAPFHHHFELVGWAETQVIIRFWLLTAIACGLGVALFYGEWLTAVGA

[5] = molecular target: MurG, P-60 (M. smegmatis) (Mycolicibacterium smegmatis, UniProt A0R016); assay: Competition reaction of UDP-GlcN-C6-FITC; format: biochemical, Mycobacterium smegmatis
[6] = Cytotoxicity against Vero cells; conditions: African green monkey
MurG of M. smegmatis = molecular target: T3, MurG of M. smegmatis (Mycolicibacterium smegmatis, UniProt A0R016); assay: Kinetic studies of MurG of M. smegmatis; format: biochemical, Mycobacterium smegmatis; conditions: P-60 of M. smegmatis; donor 8
T3 sequence (A0R016 1-385): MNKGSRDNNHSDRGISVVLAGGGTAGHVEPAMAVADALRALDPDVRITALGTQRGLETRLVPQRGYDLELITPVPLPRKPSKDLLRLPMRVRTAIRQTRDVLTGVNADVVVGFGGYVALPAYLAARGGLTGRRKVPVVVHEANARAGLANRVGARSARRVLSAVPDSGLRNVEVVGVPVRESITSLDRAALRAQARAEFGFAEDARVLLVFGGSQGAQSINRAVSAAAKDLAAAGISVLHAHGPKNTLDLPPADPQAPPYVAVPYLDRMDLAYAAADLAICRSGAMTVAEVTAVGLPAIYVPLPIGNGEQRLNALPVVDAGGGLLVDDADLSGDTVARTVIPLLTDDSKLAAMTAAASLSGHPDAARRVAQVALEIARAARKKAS

HyMurG [7] = molecular target: T1, HyMurG; assay: Kinetic studies with HyMurG; format: biochemical
HyMraY = assay: Kinetic studies with HyMraY; format: biochemical, Hydrogenivirga sp.
MurG = molecular target: T4, MurG (Mycolicibacterium smegmatis, UniProt A0R016); assay: MurG kinetic parameters and mode of inhibition, enzyme source not stated; format: biochemical; conditions: read-out: Km for UDP-GlcN-C6-FITC probe (8); 2e-C55 75 μM
T4 sequence (A0R016 1-385): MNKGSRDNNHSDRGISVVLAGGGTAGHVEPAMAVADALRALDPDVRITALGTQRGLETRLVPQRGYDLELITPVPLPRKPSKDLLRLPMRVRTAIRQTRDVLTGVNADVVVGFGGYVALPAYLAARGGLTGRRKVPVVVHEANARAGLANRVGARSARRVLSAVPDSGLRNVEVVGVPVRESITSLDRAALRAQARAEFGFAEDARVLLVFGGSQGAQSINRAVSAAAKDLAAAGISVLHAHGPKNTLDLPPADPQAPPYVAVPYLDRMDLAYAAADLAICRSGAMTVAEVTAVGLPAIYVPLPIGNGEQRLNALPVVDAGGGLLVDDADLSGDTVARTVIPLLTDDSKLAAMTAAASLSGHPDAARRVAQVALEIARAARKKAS

M. smegmatis (ATCC607) = assay: MIC determination, resazurin, M. smegmatis; format: cell-based, Mycobacterium smegmatis; conditions: 7H9 with 0.5% tween 80, 3 days at 37 °C
M. tuberculosis (H37Rv) = assay: MIC determination, M. tuberculosis; format: cell-based, Mycobacterium tuberculosis; conditions: 7H9 containing OADC; 14 days
[8] = cited from earlier work
[9] = substrate: CC(=O)N[C@H]1[C@@H](OP(=O)(O)OP(=O)(O)OC[C@H]2O[C@@H](n3ccc(=O)[nH]c3=O)[C@H](O)[C@@H]2O)O[C@H](CO)[C@@H](O)[C@@H]1O; assay: Kinetic studies of MurG of M. smegmatis; format: biochemical, Mycobacterium smegmatis; conditions: other: apparent Km
[10] = read-out: HthermMurG inhibition (%)

T1 sequence (A8US35 1-350): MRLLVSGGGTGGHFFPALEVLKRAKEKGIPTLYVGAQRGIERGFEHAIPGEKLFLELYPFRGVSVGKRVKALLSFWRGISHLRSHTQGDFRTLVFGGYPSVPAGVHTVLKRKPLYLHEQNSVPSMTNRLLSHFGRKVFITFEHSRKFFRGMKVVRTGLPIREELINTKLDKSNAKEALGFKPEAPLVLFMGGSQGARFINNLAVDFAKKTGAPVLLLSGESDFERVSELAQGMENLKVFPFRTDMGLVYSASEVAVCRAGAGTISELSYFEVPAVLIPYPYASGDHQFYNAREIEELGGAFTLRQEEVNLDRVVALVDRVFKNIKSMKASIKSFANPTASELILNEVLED

CO[C@H]1/C=C/O[C@@]2(C)Oc3c(C)c(O)c4c(O)c(c(/C=N/N5CCN(C)CC5)c(O)c4c3C2=O)NC(=O)/C(C)=C\C=C\[C@H](C)[C@H](O)[C@@H](C)[C@@H](O)[C@@H](C)[C@H](OC(C)=O)[C@@H]1C [Rifampicin]
IC50 (in vitro): > 100 µg/mL

O=C(NC(=O)c1ccccc1Cl)Nc1ccc(OC(F)(F)F)cc1 [Triflumuron, triflumuron]
Inhibition of MurG function / lipid II formation (HyMurG [1]; 50–100 μM): did not inhibit
inhibition at 10 µM (HyMurG [1]; [10]): 0%
inhibition at 50 µM (HyMurG [1]; [10]): 0%
inhibition at 100 µM (HyMurG [1]; [10]): 0%
inhibition at 10 µM (MsmegMurG [2]): 0%
inhibition at 50 µM (MsmegMurG [2]): 0%
inhibition at 100 µM (MsmegMurG [2]): 0%
IC50 (HyMurG [3]): > 100000 nM
IC50 (MsmegMurG [4]): > 100000 nM
IC50 (MsmegMraY): > 100000 nM

CC(=O)N[C@H]1[C@@H](OP(=O)(O)OP(=O)(O)OC[C@H]2O[C@@H](n3ccc(=O)[nH]c3=O)[C@H](O)[C@@H]2O)O[C@H](CO)[C@@H](O)[C@@H]1O [UDP-GlcNAc]
IC50 [5]: 8400 nM
UDP-GlcNAc required for 100%-disappearance of 9-C55 ([5]; 8 at 375 μM): > 200 µM

CN[C@H](CC(C)C)C(=O)N[C@H]1C(=O)N[C@@H](CC(N)=O)C(=O)N[C@H]2C(=O)N[C@H]3C(=O)N[C@H](C(=O)N[C@H](C(=O)O)c4cc(O)cc(O)c4-c4cc3ccc4O)[C@H](O)c3ccc(c(Cl)c3)Oc3cc2cc(c3O[C@@H]2O[C@H](CO)[C@@H](O)[C@H](O)[C@H]2O[C@H]2C[C@](C)(N)[C@H](O)[C@H](C)O2)Oc2ccc(cc2Cl)[C@H]1O [Vancomycin, vancomycin]
inhibition at 10 µM (MsmegMurG [2]): 60%
inhibition at 50 µM (MsmegMurG [2]): 67%
inhibition at 100 µM (MsmegMurG [2]): 58%
IC50 [6]: > 100 µg/mL

C55-lipid II-N^ε-C6-dansyl-FITC [Compound 9-C55]
Vmax for 9-C55 transformation (MurG of M. smegmatis): 0.56 µM/min
Vmax for 9-C55 transformation (HyMurG [7]; HyMurG, donor 8): 0.67 µM/min

Park’s nucleotide-N^ε-C6-dansylthiourea [Compound 1e]
kcat of HyMraY for 1e (HyMraY): 0.38 s⁻¹

UDP-Glucosamine-C6-FITC [Compound 8]
Km (MurG): 54 µM

ristocetin A
IC50 (HyMurG [3]): 960 nM
IC50 (MsmegMurG [4]; read-out: IC50 MsmegMurG, HPLC-based method, average of two-three experiments): 1400 nM
Mode of MurX inhibition (MsmegMraY): non-competitive inhibition against Park’s nucleotide and prenyl-P
IC50 (MsmegMraY; read-out: IC50 MsmegMraY, HPLC-based method, average of two-three experiments): 810 nM
M. smegmatis (ATCC607) MIC (M. smegmatis (ATCC607)): <0.39 µg/mL
M. tuberculosis (H37Rv) MIC (M. tuberculosis (H37Rv)): 0.5 µg/mL
Mode of HyMurG inhibition (HyMurG [7]; ristocetin A 5 μM, Michaelis-Menten plots): competes for the UDP-GlcNAc binding-site
Vero cell cytotoxicity IC50 (Vero cell): >100 µg/mL
Binding affinity, times less than that of vancomycin [8]: about 3.0 times

B1: MurG of M. smegmatis (Mycolicibacterium smegmatis MC2 155) (protein)
chain: MNKGSRDNNHSDRGISVVLAGGGTAGHVEPAMAVADALRALDPDVRITALGTQRGLETRLVPQRGYDLELITPVPLPRKPSKDLLRLPMRVRTAIRQTRDVLTGVNADVVVGFGGYVALPAYLAARGGLTGRRKVPVVVHEANARAGLANRVGARSARRVLSAVPDSGLRNVEVVGVPVRESITSLDRAALRAQARAEFGFAEDARVLLVFGGSQGAQSINRAVSAAAKDLAAAGISVLHAHGPKNTLDLPPADPQAPPYVAVPYLDRMDLAYAAADLAICRSGAMTVAEVTAVGLPAIYVPLPIGNGEQRLNALPVVDAGGGLLVDDADLSGDTVARTVIPLLTDDSKLAAMTAAASLSGHPDAARRVAQVALEIARAARKKAS
Km ([9]; 2e-C55 37.5 μM): 36 ± 10^b μM
Km ([9]; 2e-C55 75.0 μM): 37 ± 3.0 µM

Reference: PMC7286788 (ACS infectious diseases, 2019)
